35 compounds from patent publication US20240158385A1, “NOVEL COMPOUNDS” (Cerevance, Inc., priority 2021, published 2024) can be followed below.

Structures are written as SMILES. Bounds are passed on as bounds.

One assay concerns the target T1, human KCNK13 (Homo sapiens, UniProt Q9HB14).
T1 construct: expressed in transfected cells
T1 sequence (Q9HB14 1-408): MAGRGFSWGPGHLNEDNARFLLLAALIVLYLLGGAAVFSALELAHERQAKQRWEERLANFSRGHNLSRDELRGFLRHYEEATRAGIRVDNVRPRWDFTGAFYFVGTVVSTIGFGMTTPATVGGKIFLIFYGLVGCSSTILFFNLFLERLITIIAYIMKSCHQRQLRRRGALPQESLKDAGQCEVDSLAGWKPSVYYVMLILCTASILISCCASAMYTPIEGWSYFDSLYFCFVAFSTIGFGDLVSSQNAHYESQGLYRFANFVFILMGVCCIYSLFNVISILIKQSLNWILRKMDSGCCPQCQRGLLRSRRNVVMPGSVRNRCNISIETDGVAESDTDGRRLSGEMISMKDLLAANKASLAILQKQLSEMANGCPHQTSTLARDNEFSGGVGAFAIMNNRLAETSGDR
The assay can be described thus: KCNK13 antagonist activity, thallium (Tl+) flux FLIPR assay. The assay is classed as cell-based.
Settings: not given
A digest of the protocol: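 HEK 293 cells stably expressing human KCNK13 loaded with Tl+-sensitive dye for 1 h at room temperature. Compounds (10-point half-log curves) preincubated 15 min before thallium sulfate stimulus, fluorescence tracked by FLIPR. IC50 from ten-point curves, each point the mean of two wells.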
Consider `Cc1nonc1-c1nc2c(F)cccc2n1Cc1ccc(Cl)nc1` [Example 39, 3-[1-[(6-chloropyridin-3-yl)methyl]-4-fluoro-benzimidazol-2-yl]-4-methyl-1,2,5-oxadiazole], for which the IC50 was less than 200 nM.

Still in this assay, the particulars now being: HEK 293 cells stably expressing human KCNK13; Tl+ sensitive dye, FLIPR; compounds 15 minutes prior to thallium sulfate; 10 point half log curves from 10 PM; read-out: hKCNK13 IC50.
As to `Nc1nonc1-c1nc2cc(F)ccc2n1Cc1ccncc1` [Example 92, 4-[5-fluoro-1-(pyridin-4-ylmethyl)benzimidazol-2-yl]-1,2,5-oxadiazol-3-amine], the IC50 is less than 50 nM.

As to `N#Cc1ccc(Cn2c(-c3nonc3N)nc3c(F)cccc32)cn1` [Example 8, 5-[[2-(4-amino-1,2,5-oxadiazol-3-yl)-4-fluoro-benzimidazol-1-yl]methyl]pyridine-2-carbonitrile], the IC50 is less than 100 nM.

With `Cc1nonc1-c1nc2cccnc2n1Cc1cccnn1` [Example 20, 3-methyl-4-[3-(pyridazin-3-ylmethyl)imidazo[4,5-b]pyridin-2-yl]-1,2,5-oxadiazole], the IC50 is less than 1000 nM.

In the case of `Cc1nonc1-c1nc2cc(F)cc(F)c2n1Cc1cccnn1` (single isomer, unassigned) [Example 146, 3-(5,7-difluoro-1-(pyridazin-3-ylmethyl)-benzimidazol-2-yl)-4-methyl-1,2,5-oxadiazole], the IC50 is less than 50 nM.

For the compound `COc1ccc(Cn2c(-c3nonc3N)nc3cccc(F)c32)cn1` [Example 10, 4-[7-fluoro-1-[(6-methoxypyridin-3-yl)methyl]benzimidazol-2-yl]-1,2,5-oxadiazol-3-amine], the IC50 was less than 100 nM.

Take `N#Cc1ncc(Cn2c(-c3nonc3N)nc3c(F)cccc32)cn1` (single isomer, unassigned) [Example 26, 5-[[2-(4-amino-1,2,5-oxadiazol-3-yl)-4-fluoro-benzimidazol-1-yl]methyl]pyrimidine-2-carbonitrile]: the IC50 was less than 100 nM.

Regarding `Nc1nonc1-c1nc2c(F)cccc2n1Cc1ccncn1` (single isomer, unassigned) [Example 135, 4-(4-fluoro-1-(pyrimidin-4-ylmethyl)-benzimidazol-2-yl)-1,2,5-oxadiazol-3-amine], the IC50 was less than 200 nM.

Turning to `CNc1nsnc1-c1nc2c(F)cccc2n1Cc1cccnn1` [Example 144, 4-(4-fluoro-1-(pyridazin-3-ylmethyl)-benzimidazol-2-yl)-N-methyl-1,2,5-thiadiazol-3-amine], the IC50 was less than 1000 nM.

Consider `Nc1nonc1-c1nc2c(F)cccc2n1Cc1ccc(Cl)nn1` (single isomer, unassigned) [Example 149, 4-(1-((6-chloropyridazin-3-yl)methyl)-4-fluoro-benzimidazol-2-yl)-1,2,5-oxadiazol-3-amine], for which the IC50 is less than 100 nM.

Regarding `Cc1ccc(Cn2c(-c3nonc3N)nc3c(F)cccc32)nn1` (single isomer, unassigned) [Example 169, 4-(4-fluoro-1-((6-methylpyridazin-3-yl)methyl)-benzimidazol-2-yl)-1,2,5-oxadiazol-3-amine], the IC50 is less than 200 nM.

With `Nc1nsnc1-c1nc2c(F)cccc2n1Cc1cccnn1` (single isomer, unassigned) [Example 157, 4-(4-fluoro-1-(pyridazin-3-ylmethyl)-benzimidazol-2-yl)-1,2,5-thiadiazol-3-amine], the IC50 was less than 200 nM.

For the compound `Cc1nonc1-c1nc2cccc(F)c2n1Cc1ccc(S(C)(=O)=O)nc1` (single isomer, unassigned) [Example 137, 3-(7-fluoro-1-((6-(methylsulfonyl)pyridin-3-yl)methyl)-benzimidazol-2-yl)-4-methyl-1,2,5-oxadiazole], the IC50 was less than 500 nM.

Turning to `Nc1conc1-c1nc2cccc(F)c2n1Cc1cccnn1` [Example 186, 3-(7-fluoro-1-(pyridazin-3-ylmethyl)-benzimidazol-2-yl)isoxazol-4-amine], the half-inhibitory concentration (IC50) was less than 500 nM.

Regarding `Nc1nonc1-c1nc2cccc(F)c2n1Cc1ccnnc1` (single isomer, unassigned) [Example 132, 4-(7-fluoro-1-(pyridazin-4-ylmethyl)-benzimidazol-2-yl)-1,2,5-oxadiazol-3-amine], the IC50 is less than 50 nM.

On to `C[C@@H](c1cccnc1)n1c(-c2nonc2N)nc2cccc(F)c21` [Example 161, (S)-4-(7-fluoro-1-(1-(pyridin-3-yl)ethyl)-benzimidazol-2-yl)-1,2,5-oxadiazol-3-amine], for which the IC50 was less than 1000 nM.

`Nc1nonc1-c1nc2cccc(F)c2n1Cc1cncnc1` [Example 3, 4-[7-fluoro-1-(pyrimidin-5-ylmethyl)benzimidazol-2-yl]-1,2,5-oxadiazol-3-amine]: the IC50 was less than 50 nM.

In the case of `COc1ccc(Cn2c(-c3nonc3N)nc3cccc(F)c32)nn1` (single isomer, unassigned) [Example 152, 4-(7-fluoro-1-((6-methoxypyridazin-3-yl)methyl)-benzimidazol-2-yl)-1,2,5-oxadiazol-3-amine], the IC50 is less than 50 nM.

As to `Nc1nonc1-c1nc2cc(F)cc(F)c2n1Cc1ccncc1` [Example 136, 4-(5,7-difluoro-1-(pyridin-4-ylmethyl)-benzimidazol-2-yl)-1,2,5-oxadiazol-3-amine], the IC50 was less than 100 nM.

With `Cc1ccsc1-c1nc2ccccc2n1Cc1cccnc1` [Example 100, 2-(3-methylthiophen-2-yl)-1-(pyridin-3-ylmethyl)benzimidazole], the IC50 was less than 200 nM.

In the case of `Cc1cccnc1Cn1c(-c2nonc2C)nc2ccccc21` [Example 69, 3-methyl-4-[1-[(3-methylpyridin-2-yl)methyl]benzimidazol-2-yl]-1,2,5-oxadiazole], the 50% inhibitory concentration (IC50) was less than 200 nM.

In the case of `Nc1nonc1-c1nc2cccc(F)c2n1Cc1ccc(C(F)(F)F)nn1` (single isomer, unassigned) [Example 166, 4-(7-fluoro-1-((6-(trifluoromethyl)pyridazin-3-yl)methyl)-benzimidazol-2-yl)-1,2,5-oxadiazol-3-amine], the IC50 was less than 100 nM.

Take `Cc1nonc1-c1nc2cc(F)cc(F)c2n1Cc1cccnc1` [Example 27, 3-[5,7-difluoro-1-(pyridin-3-ylmethyl)benzimidazol-2-yl]-4-methyl-1,2,5-oxadiazole]: the IC50 is less than 50 nM.

Take `N#Cc1ccc(Cn2c(-c3nonc3N)nc3c(F)cccc32)nn1` (single isomer, unassigned) [Example 175, 6-((2-(4-amino-1,2,5-oxadiazol-3-yl)-4-fluoro-benzimidazol-1-yl)methyl)pyridazine-3-carbonitrile]: the IC50 was less than 200 nM.

For the compound `[2H]C([2H])(c1cccnc1)n1c(-c2nonc2C)nc2cccc(F)c21` (single isomer, unassigned) [Example 31, 3-[1-[dideuterio(pyridin-3-yl)methyl]-7-fluoro-benzimidazol-2-yl]-4-methyl-1,2,5-oxadiazole], the half-maximal inhibitory concentration (IC50) is less than 50 nM.

Turning to `Cc1nonc1-c1nc2cccnc2n1Cc1ccc(C(F)(F)F)nc1` [Example 17, 3-methyl-4-[3-[[6-(trifluoromethyl)pyridin-3-yl]methyl]imidazo[4,5-b]pyridin-2-yl]-1,2,5-oxadiazole], the IC50 is less than 500 nM.

For `Cc1nsnc1-c1nc2c(F)cccc2n1Cc1cccnc1` (single isomer, unassigned) [Example 124, 3-[4-fluoro-1-(pyridin-3-ylmethyl)benzimidazol-2-yl]-4-methyl-1,2,5-thiadiazole], the IC50 is less than 50 nM.

As to `COc1cc(Cn2c(-c3nonc3C)nc3ccccc32)ccn1` [Example 66, 3-[1-[(2-methoxypyridin-4-yl)methyl]benzimidazol-2-yl]-4-methyl-1,2,5-oxadiazole], the IC50 was less than 200 nM.

For `Cc1nonc1-c1nc2cccc(F)c2n1Cc1ccc(C#N)nc1` [Example 52, 5-[[7-fluoro-2-(4-methyl-1,2,5-oxadiazol-3-yl)benzimidazol-1-yl]methyl]pyridine-2-carbonitrile], the IC50 is less than 100 nM.

Take `Cc1nonc1-c1nc2c(F)ccc(F)c2n1Cc1cccnn1` [Example 185, 3-(4,7-difluoro-1-(pyridazin-3-ylmethyl)-benzimidazol-2-yl)-4-methyl-1,2,5-oxadiazole]: the IC50 is less than 50 nM.

Take `Cc1nonc1-c1nc2ccccc2n1Cc1cccnc1` [Example 101, 3-methyl-4-[1-(pyridin-3-ylmethyl)benzimidazol-2-yl]-1,2,5-oxadiazole]: the IC50 was less than 100 nM.

As to `Cc1onc(-c2nc3ccccc3n2Cc2cccnc2)c1C` [Example 111, 4,5-dimethyl-3-[1-(pyridin-3-ylmethyl)benzimidazol-2-yl]isoxazole], the IC50 was less than 500 nM.

Regarding `CNc1cccc2nc(-c3nonc3C)n(Cc3cccnc3)c12` [Example 81, N-methyl-2-(4-methyl-1,2,5-oxadiazol-3-yl)-3-(pyridin-3-ylmethyl)benzimidazol-4-amine], the IC50 is less than 1000 nM.

Take `Cc1nonc1-c1nc2c(F)cccc2n1Cc1cncnc1` [Example 9, 3-[4-fluoro-1-(pyrimidin-5-ylmethyl)benzimidazol-2-yl]-4-methyl-1,2,5-oxadiazole]: the IC50 is less than 100 nM.

On to `Cc1nsnc1-c1nc2c(F)cccc2n1Cc1cccnn1` [Example 140, 3-(4-fluoro-1-(pyridazin-3-ylmethyl)-benzimidazol-2-yl)-4-methyl-1,2,5-thiadiazole], for which the half-maximal inhibitory concentration (IC50) was less than 500 nM.
